For 45 compounds, inhibition results are on record in paper PMC11129182, “Development of Inhibitors, Probes, and PROTAC Provides a Complete Toolbox to Study PARK7 in the Living Cell” (Journal of Medicinal Chemistry, 2024).

In the first assay the target is T1, PARK7 (Homo sapiens, UniProt Q99497).
T1 sequence (Q99497 1-189): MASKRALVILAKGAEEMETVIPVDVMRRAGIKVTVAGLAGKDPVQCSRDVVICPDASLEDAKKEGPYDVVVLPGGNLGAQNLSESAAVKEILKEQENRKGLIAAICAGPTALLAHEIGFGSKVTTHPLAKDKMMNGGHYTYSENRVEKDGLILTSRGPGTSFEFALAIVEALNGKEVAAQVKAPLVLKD
Nature of the assay: High-throughput screen of the crude compound library, PARK7 fluorescence polarization (FP) assay with FP reagent JYQ-107. Format: biochemical. The conditions noted are these: 1.25 µM, crude compound library, FP reagent JYQ-107; read-out: HTS FP assay %Inhibition (1.25 µM). Background: In fluorescence polarisation assays a small probe gives low polarisation when free and higher when bound to something large.
As usually defined, the inhibition is how much of the control response was suppressed. Consider `CCn1ccc(-c2cc(C(=O)N3CCc4nc(NC(=O)[C@@H]5CCN(C#N)C5)sc4C3)no2)n1` [compound 365], for which the inhibition at 1.25 µM is 78.3%.

With `N#CN1CC[C@@H](C(=O)Nc2nc3c(s2)CN(C(=O)Cc2ccc([N+](=O)[O-])cc2)CC3)C1` [compound 399], the inhibition at 1.25 µM was determined as 58.2%.

`N#CN1CC[C@@H](C(=O)Nc2nc3c(s2)CN(C(=O)C2CCN(C(=O)N4CCOCC4)CC2)CC3)C1` [compound 362]: the inhibition at 1.25 µM worked out at 71.7%.

Consider `N#CN1CC[C@@H](C(=O)Nc2nc3c(s2)CN(C(=O)C2CCCN(c4ncccc4C(F)(F)F)C2)CC3)C1` (stereo partly drawn) [compound 358], for which the inhibition at 1.25 µM turned out to be 77.6%.

Turning to `N#CN1CC[C@@H](C(=O)Nc2nc3c(s2)CN(C(=O)C2CC(=O)N(OCc4ccccc4)C2)CC3)C1` (stereo partly drawn) [compound 370], the inhibition at 1.25 µM came to 72.4%.

As to `N#CCC(=O)N1CCc2nc(NC(=O)[C@@H]3CCN(C#N)C3)sc2C1` [compound 457], the inhibition at 1.25 µM came to 49.3%.

`N#CN1CC[C@@H](C(=O)Nc2nc3c(s2)CN(C(=O)CCc2ccc(O)cc2)CC3)C1` [compound 438]: the inhibition at 1.25 µM is 74.4%.

Take `Cc1ncc(C(=O)N2CCc3nc(NC(=O)[C@@H]4CCN(C#N)C4)sc3C2)s1` [compound 469]: the inhibition at 1.25 µM worked out at 76%.

As to `CCCCNc1ccc(C(=O)N2CCc3nc(NC(=O)[C@@H]4CCN(C#N)C4)sc3C2)cc1` [compound 434], the inhibition at 1.25 µM was 81.3%.

In the case of `CC(C)c1cc(C(=O)N2CCc3nc(NC(=O)[C@@H]4CCN(C#N)C4)sc3C2)n(-c2ccccc2)n1` [compound 378], the inhibition at 1.25 µM came to 87%.

On to `CN1CCC(C(=O)N2CCc3nc(NC(=O)[C@@H]4CCN(C#N)C4)sc3C2)CC1` [compound 474], for which the inhibition at 1.25 µM came to 72.5%.

The same assay, now with this note: 1.25 µM, crude compound library; read-out: HTS FP assay %Inhibition (1.25 µM).
Take `COc1ccc(S(=O)(=O)N(CCC(=O)N2CCc3nc(NC(=O)[C@@H]4CCN(C#N)C4)sc3C2)Cc2ccccc2)cc1` [compound 342]: the inhibition at 1.25 µM amounted to 85.1%.

Consider `N#CN1CC[C@@H](C(=O)Nc2nc3c(s2)CN(C(=O)C2(n4cnnn4)CCOCC2)CC3)C1` [compound 36], for which the inhibition at 1.25 µM is 65.2%.

With `N#CN1CC[C@@H](C(=O)Nc2nc3c(s2)CN(C(=O)c2cccnc2N2CCCCC2)CC3)C1` [compound 167], the inhibition at 1.25 µM was 69.5%.

Take `N#CN1CC[C@@H](C(=O)Nc2nc3c(s2)CN(C(=O)CCn2ccc(C(=O)N4CCCC4)n2)CC3)C1` [compound 324]: the inhibition at 1.25 µM is 64.4%.

Take `Cc1cccc(C(=O)N2CCCCC2C(=O)N2CCc3nc(NC(=O)[C@@H]4CCN(C#N)C4)sc3C2)n1` (stereo partly drawn) [compound 68]: the inhibition at 1.25 µM amounted to 66.5%.

Turning to `N#CN1CC[C@@H](C(=O)Nc2nc3c(s2)CN(C(=O)c2csc(-c4ncccn4)n2)CC3)C1` [compound 27], the inhibition at 1.25 µM came out at 80.8%.

Regarding `Cn1nccc1[C@@H]1C[C@H]1C(=O)N1CCc2nc(NC(=O)[C@@H]3CCN(C#N)C3)sc2C1` [compound 328], the inhibition at 1.25 µM amounted to 79.7%.

`N#CN1CC[C@@H](C(=O)Nc2nc3c(s2)CN(C(=O)c2ncoc2-c2cccs2)CC3)C1` [compound 10]: the inhibition at 1.25 µM was 77.3%.

Regarding `N#CN1CC[C@@H](C(=O)Nc2nc3c(s2)CN(C(=O)Cc2cnn(Cc4ccccc4)c2)CC3)C1` [compound 303], the inhibition at 1.25 µM amounted to 80.8%.

Consider `N#CN1CC[C@@H](C(=O)Nc2nc3c(s2)CN(C(=O)C2CCN(C(=O)CCOc4ccccc4)CC2)CC3)C1` [compound 113], for which the inhibition at 1.25 µM is 68.7%.

On to `N#CN1CC[C@@H](C(=O)Nc2nc3c(s2)CN(C(=O)c2csc(C4CCCCC4)n2)CC3)C1` [compound 270], for which the inhibition at 1.25 µM came to 87.2%.

With `Cn1cc(NS(=O)(=O)c2ccsc2C(=O)N2CCc3nc(NC(=O)[C@@H]4CCN(C#N)C4)sc3C2)cn1` [compound 53], the inhibition at 1.25 µM was found to be 64.9%.

For the compound `Cc1cnn(-c2c(C(=O)N3CCc4nc(NC(=O)[C@@H]5CCN(C#N)C5)sc4C3)c(C)nn2C)c1` [compound 26], the inhibition at 1.25 µM amounted to 61.4%.

For the compound `Cc1ncsc1C(=O)N(C)c1ccccc1C(=O)N1CCc2nc(NC(=O)[C@@H]3CCN(C#N)C3)sc2C1` [compound 308], the inhibition at 1.25 µM came out at 64.6%.

With `N#CN1CC[C@@H](C(=O)Nc2nc3c(s2)CN(C(=O)Cc2csc(N4CCCC4=O)n2)CC3)C1` [compound 306], the inhibition at 1.25 µM came out at 76%.

Take `N#CN1CC[C@@H](C(=O)Nc2nc3c(s2)CN(C(=O)c2cccc(-c4cnco4)c2)CC3)C1` [compound 124]: the inhibition at 1.25 µM worked out at 85.6%.

For `N#CN1CC[C@@H](C(=O)Nc2nc3c(s2)CN(C(=O)c2sc(N4CCCC4)nc2Cl)CC3)C1` [compound 227], the inhibition at 1.25 µM worked out at 74%.

As to `N#CN1CC[C@@H](C(=O)Nc2nc3c(s2)CN(C(=O)C2CCN(S(=O)(=O)N4CCCCC4)CC2)CC3)C1` [compound 282], the inhibition at 1.25 µM came to 72.8%.

With `CC(C(=O)N1CCc2nc(NC(=O)[C@@H]3CCN(C#N)C3)sc2C1)n1nc(C(F)(F)F)cc1C1CC1` (stereo partly drawn) [compound 143], the inhibition at 1.25 µM amounted to 64.1%.

In the case of `CC1=NN(c2ccc(C(=O)N3CCc4nc(NC(=O)[C@@H]5CCN(C#N)C5)sc4C3)cc2)CC1` [compound 71], the inhibition at 1.25 µM was determined as 69.5%.

For `N#CN1CC[C@@H](C(=O)Nc2nc3c(s2)CN(C(=O)c2occc2COc2ccccc2)CC3)C1` [compound 111], the inhibition at 1.25 µM is 82.9%.

Take `N#CN1CC[C@@H](C(=O)Nc2nc3c(s2)CN(C(=O)C(Cc2c[nH]cn2)NS(=O)(=O)c2ccc(Cl)cc2)CC3)C1` (stereo partly drawn) [compound 7]: the inhibition at 1.25 µM is 67.3%.

As for `N#CN1CC[C@@H](C(=O)Nc2nc3c(s2)CN(C(=O)Cc2coc(-c4cccs4)n2)CC3)C1` [compound 341], the inhibition at 1.25 µM was 87%.

`N#CN1CC[C@@H](C(=O)Nc2nc3c(s2)CN(C(=O)c2nc(N4CCCC4)ncc2Cl)CC3)C1` [compound 6]: the inhibition at 1.25 µM came out at 71.7%.

`COc1ccc(C(=O)N2CCc3nc(NC(=O)[C@@H]4CCN(C#N)C4)sc3C2)cc1S(=O)(=O)NCCc1ccccn1` [compound 175]: the inhibition at 1.25 µM amounted to 78.6%.

For `N#CN1CC[C@@H](C(=O)Nc2nc3c(s2)CN(C(=O)c2cccn2-c2c(Cl)cccc2Cl)CC3)C1` [compound 218], the inhibition at 1.25 µM is 69.2%.

With `N#CN1CC[C@@H](C(=O)Nc2nc3c(s2)CN(C(=O)c2ccc(C#Cc4ccccc4)cc2)CC3)C1` [compound 319], the inhibition at 1.25 µM was 75.9%.

Take `N#CN1CC[C@@H](C(=O)Nc2nc3c(s2)CN(C(=O)c2ccn(-c4ccc(C(F)(F)F)cn4)n2)CC3)C1` [compound 235]: the inhibition at 1.25 µM worked out at 67.4%.

In the case of `COc1ccccc1-c1nnc(CC(=O)N2CCc3nc(NC(=O)[C@@H]4CCN(C#N)C4)sc3C2)o1` [compound 78], the inhibition at 1.25 µM was 74.3%.

Consider `N#CN1CC[C@@H](C(=O)Nc2nc3c(s2)CN(C(=O)c2cnnn2-c2ccccc2Cl)CC3)C1` [compound 40], for which the inhibition at 1.25 µM turned out to be 68.9%.

Regarding `CN1C(=O)CCC(C(=O)N2CCc3nc(NC(=O)[C@@H]4CCN(C#N)C4)sc3C2)C1c1cccs1` (stereo partly drawn) [compound 256], the inhibition at 1.25 µM came to 61.4%.

Take `Cc1ccc(N(CCC(=O)N2CCc3nc(NC(=O)[C@@H]4CCN(C#N)C4)sc3C2)S(=O)(=O)c2ccccc2)cc1` [compound 79]: the inhibition at 1.25 µM is 87.6%.

With `Cc1nc(-c2ncccn2)sc1C(=O)N1CCc2nc(NC(=O)[C@@H]3CCN(C#N)C3)sc2C1` [compound 75], the inhibition at 1.25 µM came to 72%.

As for `Cn1nc(CC(=O)N2CCc3nc(NC(=O)[C@@H]4CCN(C#N)C4)sc3C2)cc1C1CC1` [compound 241], the inhibition at 1.25 µM came out at 86.1%.
